ChEMBL document CHEMBL1255342, “Efficacy of benzoxazinorifamycins in a mouse model of Chlamydia pneumoniae lung infection” (2008)
Converted amounts (≈) assume the structure as drawn. “And” between values parts separate entries of the source, which are not always exact repeats. Equal values may be shown once.

What was measured:
Assay type in all cases: functional
Chlamydia pneumoniae [1] = test: Antimicrobial activity against Chlamydia pneumoniae TW-183 after 72 hrs by twofold dilution method; details: TW-183, 72 h
Chlamydia pneumoniae [2] = test: Antimicrobial activity against Chlamydia pneumoniae AR39 infected in C57BL/6J mouse at 1 mg/kg, ip assessed as bacterial load measured on day 10 post infection relative to control; details: route intraperitoneal
Chlamydia pneumoniae [3] = test: Antimicrobial activity against Chlamydia pneumoniae AR39 infected in C57BL/6J mouse at 3 mg/kg, ip assessed as bacterial load measured on day 10 post infection relative to control; details: route intraperitoneal

| Compound | MIC (Chlamydia pneumoniae [1]) | Efficacy (Chlamydia pneumoniae [2]) | Efficacy (Chlamydia pneumoniae [3]) | Efficacy (Chlamydia pneumoniae [2]; 1 mg/kg) | Efficacy (Chlamydia pneumoniae [3]; 3 mg/kg) |
| --- | --- | --- | --- | --- | --- |
| CO[C@H]1/C=C/O[C@@]2(C)Oc3c(C)c(O)c4c(=O)c(c5oc6cc(N7CC(N(C)C)C7)cc(O)c6nc-5c4c3C2=O)NC(=O)/C(C)=C\C=C\[C@H](C)[C@H](O)[C@@H](C)[C@@H](O)[C@@H](C)[C@H](OC(C)=O)[C@@H]1C | 0.064 ng/mL (≈ 0.0712 nM) | 0.06% | 0.025% | – | – |
| CO[C@H]1/C=C/O[C@@]2(C)Oc3c(C)c(O)c4c(=O)c(c5oc6cc(N7CCN(CC8CC8)CC7)cc(O)c6nc-5c4c3C2=O)NC(=O)/C(C)=C\C=C\[C@H](C)[C@H](O)[C@@H](C)[C@@H](O)[C@@H](C)[C@H](O)[C@@H]1C | 0.064 ng/mL (≈ 0.0713 nM) | 1.34% | 15.51% | – | – |
| CO[C@H]1/C=C/O[C@@]2(C)Oc3c(C)c(O)c4c(=O)c(c5oc6cc(N7CCC(C)(N(C)C)CC7)cc(O)c6nc-5c4c3C2=O)NC(=O)/C(C)=C\C=C\[C@H](C)[C@H](O)[C@@H](C)[C@@H](O)[C@@H](C)[C@H](OC(C)=O)[C@@H]1C | – | 0.49% | 0.56% | – | – |
| CO[C@H]1/C=C/O[C@@]2(C)Oc3c(C)c(O)c4c(=O)c(c5oc6cc(N7CCC(C)(C)N(C)C(C)(C)C7)cc(O)c6nc-5c4c3C2=O)NC(=O)/C(C)=C\C=C\[C@H](C)[C@H](O)[C@@H](C)[C@@H](O)[C@@H](C)[C@H](OC(C)=O)[C@@H]1C | 0.064 ng/mL (≈ 0.066 nM) | 0.03% | <0.025% | – | – |

Continued by falling MIC (Chlamydia pneumoniae [1]), values first:

| MIC (Chlamydia pneumoniae [1]) | Compound | Efficacy (Chlamydia pneumoniae [2]) | Efficacy (Chlamydia pneumoniae [3]) | Efficacy (Chlamydia pneumoniae [2]; 1 mg/kg) | Efficacy (Chlamydia pneumoniae [3]; 3 mg/kg) |
| --- | --- | --- | --- | --- | --- |
| 0.25 ng/mL (≈ 0.266 nM) | CO[C@H]1/C=C/O[C@@]2(C)Oc3c(C)c(O)c4c(=O)c(c5oc6cc(N7CCN(CC(C)C)CC7)cc(O)c6nc-5c4c3C2=O)NC(=O)/C(C)=C\C=C\[C@H](C)[C@H](O)[C@@H](C)[C@@H](O)[C@@H](C)[C@H](OC(C)=O)[C@@H]1C [RIFALAZIL] | 0.24% | 1.14% | – | – |
| 0.125 ng/mL (≈ 0.135 nM) | CO[C@H]1/C=C/O[C@@]2(C)Oc3c(C)c(O)c4c(=O)c(c5oc6cc(N7CC8CCC(C7)N8C)cc(O)c6nc-5c4c3C2=O)NC(=O)/C(C)=C\C=C\[C@H](C)[C@H](O)[C@@H](C)[C@@H](O)[C@@H](C)[C@H](OC(C)=O)[C@@H]1C | 0.14% | <0.025% | – | – |
| 0.125 ng/mL (≈ 0.146 nM) | CO[C@H]1/C=C/O[C@@]2(C)Oc3c(C)c(O)c4c(=O)c(c5oc6cc(N7CCN(C)CC7)cc(O)c6nc-5c4c3C2=O)NC(=O)/C(C)=C\C=C\[C@H](C)[C@H](O)[C@@H](C)[C@@H](O)[C@@H](C)[C@H](O)[C@@H]1C | – | – | 1.26% and 6.04% | 0.44% and 0.18% |
